Measured values published in the NIST ThermoML archive (doi:10.1021/je5009679).

Settings: Liquid; for viscosity: Concentric cylinders viscometry

CCCC[n+]1ccn(C)c1.O=S(=O)([N-]S(=O)(=O)C(F)(F)F)C(F)(F)F
101.33 kPa
Settings | viscosity [mPa·s]
293.15 K | 63.41
303.15 K | 41.26
313.15 K | 28.46
323.15 K | 20.58
333.15 K | 15.47
343.15 K | 12
353.15 K | 9.562
363.15 K | 7.788
373.15 K | 6.469

Settings | mass density [kg/m3]
293.15 K, 101.33 kPa, Vibrating tube method | 1440.9
303.15 K, 101.33 kPa, Vibrating tube method | 1431.6
311.8 K, 10000 kPa, Bellows volumetry | 1430.7
311.8 K, 20000 kPa, Bellows volumetry | 1437.5
311.8 K, 30000 kPa, Bellows volumetry | 1444.6
311.8 K, 40000 kPa, Bellows volumetry | 1451.2
311.8 K, 50000 kPa, Bellows volumetry | 1457.5
311.8 K, 60000 kPa, Bellows volumetry | 1463.6
311.8 K, 70000 kPa, Bellows volumetry | 1469.5
311.8 K, 80000 kPa, Bellows volumetry | 1475.2
311.8 K, 90000 kPa, Bellows volumetry | 1480.5
311.8 K, 100000 kPa, Bellows volumetry | 1485.7
311.8 K, 110000 kPa, Bellows volumetry | 1490.9
311.8 K, 120000 kPa, Bellows volumetry | 1496
311.8 K, 130000 kPa, Bellows volumetry | 1500.9
311.8 K, 140000 kPa, Bellows volumetry | 1505.6
311.8 K, 150000 kPa, Bellows volumetry | 1510.2
311.8 K, 160000 kPa, Bellows volumetry | 1514.8
311.8 K, 170000 kPa, Bellows volumetry | 1519.3
311.8 K, 180000 kPa, Bellows volumetry | 1523.5
311.8 K, 190000 kPa, Bellows volumetry | 1527.7
311.8 K, 200000 kPa, Bellows volumetry | 1531.8
313.15 K, 101.33 kPa, Vibrating tube method | 1422.1
323.15 K, 101.33 kPa, Vibrating tube method | 1412.6
331.9 K, 10000 kPa, Bellows volumetry | 1412.5
331.9 K, 20000 kPa, Bellows volumetry | 1420.1
331.9 K, 30000 kPa, Bellows volumetry | 1427.4
331.9 K, 40000 kPa, Bellows volumetry | 1434.5
331.9 K, 50000 kPa, Bellows volumetry | 1441.1
331.9 K, 60000 kPa, Bellows volumetry | 1447.6
331.9 K, 70000 kPa, Bellows volumetry | 1453.6
331.9 K, 80000 kPa, Bellows volumetry | 1459.5
331.9 K, 90000 kPa, Bellows volumetry | 1464.9
331.9 K, 100000 kPa, Bellows volumetry | 1470.5
331.9 K, 110000 kPa, Bellows volumetry | 1476
331.9 K, 120000 kPa, Bellows volumetry | 1481.1
331.9 K, 130000 kPa, Bellows volumetry | 1486.2
331.9 K, 140000 kPa, Bellows volumetry | 1491.2
331.9 K, 150000 kPa, Bellows volumetry | 1495.9
331.9 K, 160000 kPa, Bellows volumetry | 1500.5
331.9 K, 170000 kPa, Bellows volumetry | 1505.2
331.9 K, 180000 kPa, Bellows volumetry | 1509.6
331.9 K, 190000 kPa, Bellows volumetry | 1513.9
331.9 K, 200000 kPa, Bellows volumetry | 1518.3
333.15 K, 101.33 kPa, Vibrating tube method | 1403.4
343.15 K, 101.33 kPa, Vibrating tube method | 1394
352 K, 10000 kPa, Bellows volumetry | 1394
352 K, 20000 kPa, Bellows volumetry | 1402.4
352 K, 30000 kPa, Bellows volumetry | 1410
352 K, 40000 kPa, Bellows volumetry | 1417.4
352 K, 50000 kPa, Bellows volumetry | 1424.3
352 K, 60000 kPa, Bellows volumetry | 1431.2
352 K, 70000 kPa, Bellows volumetry | 1437.5
352 K, 80000 kPa, Bellows volumetry | 1443.8
352 K, 90000 kPa, Bellows volumetry | 1449.5
352 K, 100000 kPa, Bellows volumetry | 1455.3
352 K, 110000 kPa, Bellows volumetry | 1460.8
352 K, 120000 kPa, Bellows volumetry | 1466.3
352 K, 130000 kPa, Bellows volumetry | 1471.5
352 K, 140000 kPa, Bellows volumetry | 1476.5
352 K, 150000 kPa, Bellows volumetry | 1481.4
352 K, 160000 kPa, Bellows volumetry | 1486.3
352 K, 170000 kPa, Bellows volumetry | 1491
352 K, 180000 kPa, Bellows volumetry | 1495.8
352 K, 190000 kPa, Bellows volumetry | 1500.2
352 K, 200000 kPa, Bellows volumetry | 1504.7
353.15 K, 101.33 kPa, Vibrating tube method | 1384.8
363.15 K, 101.33 kPa, Vibrating tube method | 1375.6
372.2 K, 10000 kPa, Bellows volumetry | 1376.1
372.2 K, 20000 kPa, Bellows volumetry | 1384.9
372.2 K, 30000 kPa, Bellows volumetry | 1393.3
372.2 K, 40000 kPa, Bellows volumetry | 1401.1
372.2 K, 50000 kPa, Bellows volumetry | 1408.4
372.2 K, 60000 kPa, Bellows volumetry | 1415.5
372.2 K, 70000 kPa, Bellows volumetry | 1422.1
372.2 K, 80000 kPa, Bellows volumetry | 1428.4
372.2 K, 90000 kPa, Bellows volumetry | 1434.4
372.2 K, 100000 kPa, Bellows volumetry | 1440.3
372.2 K, 110000 kPa, Bellows volumetry | 1446.2
372.2 K, 120000 kPa, Bellows volumetry | 1452
372.2 K, 130000 kPa, Bellows volumetry | 1457.4
372.2 K, 140000 kPa, Bellows volumetry | 1462.6
372.2 K, 150000 kPa, Bellows volumetry | 1467.8
372.2 K, 160000 kPa, Bellows volumetry | 1472.5
372.2 K, 170000 kPa, Bellows volumetry | 1477.5
372.2 K, 180000 kPa, Bellows volumetry | 1482.1
372.2 K, 190000 kPa, Bellows volumetry | 1487
372.2 K, 200000 kPa, Bellows volumetry | 1491.4
373.15 K, 101.33 kPa, Vibrating tube method | 1366.7
392.4 K, 10000 kPa, Bellows volumetry | 1358.5
392.4 K, 20000 kPa, Bellows volumetry | 1367.8
392.4 K, 30000 kPa, Bellows volumetry | 1376.7
392.4 K, 40000 kPa, Bellows volumetry | 1385
392.4 K, 50000 kPa, Bellows volumetry | 1392.8
392.4 K, 60000 kPa, Bellows volumetry | 1400.2
392.4 K, 70000 kPa, Bellows volumetry | 1407.2
392.4 K, 80000 kPa, Bellows volumetry | 1414
392.4 K, 90000 kPa, Bellows volumetry | 1420.7
392.4 K, 100000 kPa, Bellows volumetry | 1426.6
392.4 K, 110000 kPa, Bellows volumetry | 1432.6
392.4 K, 120000 kPa, Bellows volumetry | 1438.2
392.4 K, 130000 kPa, Bellows volumetry | 1443.8
392.4 K, 140000 kPa, Bellows volumetry | 1449.2
392.4 K, 150000 kPa, Bellows volumetry | 1454.4
392.4 K, 160000 kPa, Bellows volumetry | 1459.3
392.4 K, 170000 kPa, Bellows volumetry | 1464.5
392.4 K, 180000 kPa, Bellows volumetry | 1469.2
392.4 K, 190000 kPa, Bellows volumetry | 1474.1
392.4 K, 200000 kPa, Bellows volumetry | 1478.8
412.1 K, 10000 kPa, Bellows volumetry | 1341.1
412.1 K, 20000 kPa, Bellows volumetry | 1351
412.1 K, 30000 kPa, Bellows volumetry | 1360.4
412.1 K, 40000 kPa, Bellows volumetry | 1369.2
412.1 K, 50000 kPa, Bellows volumetry | 1377.5
412.1 K, 60000 kPa, Bellows volumetry | 1385.1
412.1 K, 70000 kPa, Bellows volumetry | 1392.6
412.1 K, 80000 kPa, Bellows volumetry | 1399.6
412.1 K, 90000 kPa, Bellows volumetry | 1406.1
412.1 K, 100000 kPa, Bellows volumetry | 1412.5
412.1 K, 110000 kPa, Bellows volumetry | 1418.8
412.1 K, 120000 kPa, Bellows volumetry | 1424.8
412.1 K, 130000 kPa, Bellows volumetry | 1430.5
412.1 K, 140000 kPa, Bellows volumetry | 1436.2
412.1 K, 150000 kPa, Bellows volumetry | 1441.4
412.1 K, 160000 kPa, Bellows volumetry | 1446.8
412.1 K, 170000 kPa, Bellows volumetry | 1451.9
412.1 K, 180000 kPa, Bellows volumetry | 1456.9
412.1 K, 190000 kPa, Bellows volumetry | 1461.6
412.1 K, 200000 kPa, Bellows volumetry | 1466.6
